We go through three compounds from patent US10106625B2, “Pharmaceutical compositions with enhanced performance and improved processability” (HERCULES INCORPORATED, priority 2013, dated 2018).

Series [1] in a line: Kinetic solubility of spray dried dispersion with Ezetimibe in FaSSIF. Type of series: physicochemical. As for the experimental part: Hg reduced pressure for 24 hours.
The conditions of series [2]: 120 min.
Description: Dissolution was performed using a pDISS Profiler™ (available from Pion Inc., MA, USA). Each spray-dried powder was weighed so that the volume adjusted equivalent of the typical daily dose of the drug was added to each vial and compensation was made for the drug load of the samples. For example, the target API was 9.5 mg for Felpdipine in 20 ml of FaSSIF. The spray dried sample containing 9.5 mg API of Felpdipine was weighed. For Ezetimibe, the spray dried sample containing 10 mg API was weighed. The weighed spray dried samples were added to 20 ml of FaSSIF in vials and then heated to 37° C. The vials were maintained at a constant stirring speed of 300 RPM. Dissolution measurements were taken by in situ fiber optic probes at various time points and these measurements were analyzed at the appropriate wavelength for dissolved API concentration. Based on the in situ measurement data, various solubility parameters were calculated.
The conditions of series [3]: cited from earlier work.

Like-named read-outs stand apart in the source and are kept apart here.

In turn, `O=C1[C@H](CC[C@H](O)c2ccc(F)cc2)[C@@H](c2ccc(O)cc2)N1c1ccc(F)cc1` [Ezetimibe API, Ezetimibe] returned a C120 in series [1] (Ezetimibe SDD, 60% drug load, API concentration at 120 minutes) of 14 µg/mL. In addition, the AUC120 in series [1] (Ezetimibe SDD, 60% drug load, FaSSIF 37° C., API concentration over first 120 minutes) is recorded as 1,626 μg * min/mL. Moreover, in series [1] (Ezetimibe, ratio of AUC120 of polymer/drug dispersion versus API alone), the “AUC(Rel)” value worked out at 1.0.

In series [2], `CCOC(=O)C1=C(C)NC(C)=C(C(=O)OC)C1c1cccc(Cl)c1Cl` (centres unmarked) [Felodipine API, Felodipine] registered a C120 of 28 µg/mL.

Regarding `CCOC(=O)N1c2ccc(C(F)(F)F)cc2[C@@H](N(Cc2cc(C(F)(F)F)cc(C(F)(F)F)c2)C(=O)OC)C[C@H]1CC` [torcetrapib], in series [3], the aqueous solubility entry is “less than 0.04 μg/ml”.
